Eleven molecules from patent US20250049970A1, “DLL3 TARGETING PEPTIDES AND CONSTRUCTS THEREOF” (MARIANA ONCOLOGY INC., priority 2023, published 2025) can be followed below.

The subject of data set [1] is nude mice bearing SHP-77 tumors. Kind of data set: Ex vivo biodistribution of radiolabeled peptides (% IA/g) in nude mice bearing SHP-77 tumors. The conditions noted are these: [177Lu]Lu labelling, 24 hours post-injection, intravenous. Here is the method:
Mice were intravenously injected (via the lateral tail vein) with a bolus dose of the radiolabeled peptides for ex vivo biodistribution studies when tumor volumes were in range of 200-400 mm^3 for xenograft mice and when age of the mice was 5-7 weeks for tumor naïve mice studies. To assess the amount of radionuclide injected into individual mice the syringe was assayed in a dose calibrator before and after injection for [^177Lu]Lu-peptide, then the injected dose was determined from the weight difference and concentration of the radionuclide solution.
Mice were euthanized at pre-determined time points and selected tissues were resected and collected into pre-weighed tubes. The tubes were then reweighed post resection, the difference giving the weight of each tissue. Radioactivity in each tissue was measured using a gamma counter. Counts were decay corrected to the time of injection and percentage of injected activity per gram (% IA/g) was calculated for each tissue based on the injected activity into each individual mouse. Injected activity was converted to counts based on the sensitivity of the gamma counter. The counts in tissue were then converted to the percentage of injected activity and this was divided by the mass of tissue to give % IA/g.

Data set [2] has as its target T1, DLL3 (Homo sapiens, UniProt Q9NYJ7).
T1 sequence (Q9NYJ7 27-618): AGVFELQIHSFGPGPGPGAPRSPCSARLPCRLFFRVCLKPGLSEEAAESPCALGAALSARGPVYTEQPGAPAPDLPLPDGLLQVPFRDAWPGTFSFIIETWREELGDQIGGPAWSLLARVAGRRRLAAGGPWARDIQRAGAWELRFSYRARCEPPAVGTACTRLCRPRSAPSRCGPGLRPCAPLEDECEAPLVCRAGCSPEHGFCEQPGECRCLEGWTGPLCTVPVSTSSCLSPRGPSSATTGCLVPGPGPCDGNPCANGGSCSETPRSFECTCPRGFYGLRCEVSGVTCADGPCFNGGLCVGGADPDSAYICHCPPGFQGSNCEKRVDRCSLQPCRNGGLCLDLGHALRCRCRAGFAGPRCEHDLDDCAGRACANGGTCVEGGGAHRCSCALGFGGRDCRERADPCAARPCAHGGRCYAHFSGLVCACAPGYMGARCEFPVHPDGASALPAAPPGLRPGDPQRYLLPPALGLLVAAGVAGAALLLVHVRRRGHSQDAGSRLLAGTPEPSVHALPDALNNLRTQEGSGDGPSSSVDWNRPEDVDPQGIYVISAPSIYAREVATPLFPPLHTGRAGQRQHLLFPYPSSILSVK
Kind of data set: SPR KD, biotinylated human DLL3 on streptavidin chip (Table 8). Details: biotin (biotinylated). The settings on record: biotinylated human DLL3 on streptavidin sensor chip, 25° C., 1:1 binding model; read-out: SPR KD. The source says: Biotinylated target ligand human DLL3 was immobilized on a streptavidin sensor chip. A reference surface was set up for nonspecific binding and refractive index changes. […] Sensorgram curves were fitted with 1:1 binding model, and affinity and kinetic parameters were obtained using Biacore Insight evaluation 4.0. software.

For data set [3], the target named is T2, DLL3 (target ligand immobilized on a SA sensor chip via streptavidin capture) (Homo sapiens (Human), UniProt Q9NYJ7 27-492, limits assumed).
T2 sequence: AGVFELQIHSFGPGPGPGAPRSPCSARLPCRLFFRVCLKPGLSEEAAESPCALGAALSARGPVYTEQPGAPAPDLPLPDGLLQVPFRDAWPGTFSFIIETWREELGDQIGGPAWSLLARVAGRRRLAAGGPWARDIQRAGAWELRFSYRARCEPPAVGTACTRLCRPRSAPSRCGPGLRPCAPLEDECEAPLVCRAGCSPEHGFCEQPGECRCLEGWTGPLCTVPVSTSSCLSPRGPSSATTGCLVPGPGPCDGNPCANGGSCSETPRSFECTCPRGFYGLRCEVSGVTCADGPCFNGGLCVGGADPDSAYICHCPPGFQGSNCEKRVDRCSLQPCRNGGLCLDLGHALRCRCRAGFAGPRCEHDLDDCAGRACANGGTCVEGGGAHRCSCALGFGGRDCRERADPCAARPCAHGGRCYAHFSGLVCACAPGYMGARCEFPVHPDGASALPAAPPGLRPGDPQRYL
Nature of the data set: SPR, Biacore S200, target ligand on SA chip, 25 C, 1:1 fit. Here is the method: Target ligand was immobilized on a SA sensor chip via streptavidin capture. A reference surface was set up for nonspecific binding and refractive index changes. For analysis of the kinetics of interactions, varying concentrations of peptides were injected at a flow rate of 50 μL/minute using running buffer containing 20 mM phosphate buffer with 2.7 mM KCl, 137 mM NaCl and 0.05% Surfactant P20. Sensorgram curves were fitted with 1:1 binding model, and affinity and kinetic parameters were obtained using either Biacore S200 evaluation software 1.1.1 or Biacore Insight evaluation 4.0.
(In general: SPR reads the build-up and loss of mass on a sensor chip optically.)

*1 amine or outer side, *2 acyl side, *3 side chain or, on linkers, in order; H or OH if unused. Where a SMILES comes first, the peptide text is derived from it. Bridges are numbered along the chain shown (N, C = ends). [ ]: non-standard residue; d: D form. The star is where a group is joined. ξ: configuration not given here. Ala(piperidin-4-yl) = O=C([C@H](CC1CCN([*:3])CC1)N[*:1])[*:2]; DOTA = O=C(O)CN1CCN(CC(=O)O)CCN(CC(=O)*)CCN(CC(=O)O)CC1; Trp(7-OMe) = COc1cccc2c(C[C@H](N)C(=O)O)c[nH]c12; Phe(4-F) = N[C@@H](Cc1ccc(F)cc1)C(=O)O; 2Nal = N[C@@H](Cc1ccc2ccccc2c1)C(=O)O; NMetBuAla = CN[C@@H](CC(C)(C)C)C(=O)O; tBuAla = CC(C)(C)C[C@H](N)C(=O)O; Thr(3ξ) = CC(O)[C@H](N)C(=O)O; Chg = N[C@H](C(=O)O)C1CCCCC1; αMeP = C[C@@]1(C(=O)O)CCCN1; CH2 = C([*:1])[*:2]

In the case of `CC(=O)N[C@@H](Cc1c[nH]c2ccccc12)C(=O)N[C@H](C(=O)N(C)[C@@H](CC(C)(C)C)C(=O)N[C@H]1CSCSC[C@@H](C(=O)N[C@@H](Cc2c[nH]c3ccccc23)C(=O)N2CCC[C@@]2(C)C(=O)O)NC(=O)[C@H](CC(=O)O)NC(=O)[C@H](CCCCNC(=O)CN2CCN(CC(=O)O)CCN(CC(=O)O)CCN(CC(=O)O)CC2)NC(=O)[C@H](Cc2ccc3ccccc3c2)NC(=O)[C@H](CC(N)=O)NC(=O)[C@H](CC2CCNCC2)NC1=O)C(C)O` (stereo partly drawn) [compound 443, Ac-W-T-(NMe-tBuAla)-C(1)-[3-(4-piperidinyl)-Ala]-N-(2Nal)-Lys(DOTA)-D-C(1)-W-(aMe-P)-CO2H] (Ac-W[Thr(3ξ)][NMetBuAla]C[Ala(piperidin-4-yl)]N[2Nal]K(DOTA)DCW[αMeP]-OH; linker 4-10 via CH2), in data set [1], the “kidney uptake (% IA/g)” value is “C (“C” represents 0 < % IA/g ≤ 10 in)” and the “tumor uptake (% IA/g)” value is reported as “B (“B” represents % IA/g > 5 in tumor)”. Also, the Kd in data set [2] is less than 1 nM. With `CC(=O)N[C@@H](Cc1c[nH]c2ccccc12)C(=O)N[C@H](C(=O)N[C@@H](CC(C)(C)C)C(=O)N[C@H]1CSCSC[C@@H](C(=O)N[C@@H](Cc2c[nH]c3ccccc23)C(=O)N2CCC[C@@]2(C)C(N)=O)NC(=O)[C@H](CC(=O)O)NC(=O)[C@H](CCCCNC(=O)CN2CCN(CC(=O)O)CCN(CC(=O)O)CCN(CC(=O)O)CC2)NC(=O)[C@H](Cc2ccc3ccccc3c2)NC(=O)[C@H](CC(N)=O)NC(=O)[C@H](CC2CCNCC2)NC1=O)[C@@H](C)O` [compound 437, Ac-W-T-(t-Bu-Ala)-C(1)-[3-(4-piperidinyl)-Ala]-N-(2Nal)-Lys(DOTA)-D-C(1)-W-(aMe-P)-CONH2] (Ac-WT[tBuAla]C[Ala(piperidin-4-yl)]N[2Nal]K(DOTA)DCW[αMeP]-NH2; linker 4-10 via CH2), in data set [1], the “kidney uptake (% IA/g)” value is “C (“C” represents 0 < % IA/g ≤ 10 in)” and the “tumor uptake (% IA/g)” value is recorded as “B (“B” represents % IA/g > 5 in tumor)”. The Kd in data set [2] was less than 1 nM. Regarding `COc1cccc2c(C[C@H](NC(C)=O)C(=O)N[C@H](C(=O)N[C@H](C(=O)N[C@H]3CSSC[C@@H](C(=O)N[C@@H](Cc4c[nH]c5ccccc45)C(=O)N4CCC[C@H]4C(N)=O)NC(=O)[C@H](CC(=O)O)NC(=O)[C@H](CCCCNC(=O)CN4CCN(CC(=O)O)CCN(CC(=O)O)CCN(CC(=O)O)CC4)NC(=O)[C@H](Cc4ccc5ccccc5c4)NC(=O)[C@H](CC(N)=O)NC(=O)[C@H](CC4CCNCC4)NC3=O)C3CCCCC3)[C@@H](C)O)c[nH]c12` [compound 405, Ac-(7MeO-Trp)-T-(Chg)-C(3)-[3-(4-piperidinyl)-Ala]-N-(2Nal)-Lys(DOTA)-D-C(3)-W-P-CONH2] (Ac-[Trp(7-OMe)]T[Chg]C[Ala(piperidin-4-yl)]N[2Nal]K(DOTA)DCWP-NH2; disulfide 4-10), the Kd in data set [2] is less than 1 nM. On the same count and under the same terms, the figure for `CC[C@H](C)[C@H](NC(=O)[C@@H](NC(=O)[C@H](Cc1ccc(F)cc1)NC(C)=O)[C@@H](C)O)C(=O)N[C@H]1CSSC[C@@H](C(=O)N[C@@H](Cc2c[nH]c3ccccc23)C(=O)N2CCC[C@H]2C(N)=O)NC(=O)[C@H](CC(=O)O)NC(=O)[C@H](Cc2cnc[nH]2)NC(=O)[C@H](Cc2c[nH]c3ccccc23)NC(=O)[C@H](CC(N)=O)NC(=O)[C@H](CC(N)=O)NC1=O` [compound 214, Ac-(4Fluoro-F)-T-I-C(3)-N-N-W-H-D-C(3)-W-P-CONH2] (Ac-[Phe(4-F)]TICNNWHDCWP-NH2; disulfide 4-10) is 100 to 300 nM.

B1: SEQ ID NO 76 (peptide)
peptide: Ac-MDCNFFDCDAWTW-NH2
modifications: disulfide 3-8
SMILES: CSCC[C@H](NC(C)=O)C(=O)N[C@@H](CC(=O)O)C(=O)N[C@H]1CSSC[C@@H](C(=O)N[C@@H](CC(=O)O)C(=O)N[C@@H](C)C(=O)N[C@@H](Cc2c[nH]c3ccccc23)C(=O)N[C@H](C(=O)N[C@@H](Cc2c[nH]c3ccccc23)C(N)=O)[C@@H](C)O)NC(=O)[C@H](CC(=O)O)NC(=O)[C@H](Cc2ccccc2)NC(=O)[C@H](Cc2ccccc2)NC(=O)[C@H](CC(N)=O)NC1=O
For B1, binding in data set [3] was put at a Kd of 290 nM.

B2: SEQ ID NO 80 (peptide)
peptide: {DOTA}-WTICNNWHDCWP-NH2
modifications: disulfide 4-10
Regarding B2, in data set [3], the dissociation constant (Kd) came to 80 nM.

B3: SEQ ID NO 79 (peptide)
peptide: Ac-MSDCWLQWNCPFD-NH2
modifications: disulfide 4-10
SMILES: CSCC[C@H](NC(C)=O)C(=O)N[C@@H](CO)C(=O)N[C@@H](CC(=O)O)C(=O)N[C@H]1CSSC[C@@H](C(=O)N2CCC[C@H]2C(=O)N[C@@H](Cc2ccccc2)C(=O)N[C@@H](CC(=O)O)C(N)=O)NC(=O)[C@H](CC(N)=O)NC(=O)[C@H](Cc2c[nH]c3ccccc23)NC(=O)[C@H](CCC(N)=O)NC(=O)[C@H](CC(C)C)NC(=O)[C@H](Cc2c[nH]c3ccccc23)NC1=O
In the case of B3, binding in data set [3] was put at a Kd of 32 nM.

B4: SEQ ID NO 67 (peptide)
peptide: Ac-MWTICADWAQCWP-NH2
modifications: disulfide 5-11
SMILES: CC[C@H](C)[C@H](NC(=O)[C@@H](NC(=O)[C@H](Cc1c[nH]c2ccccc12)NC(=O)[C@H](CCSC)NC(C)=O)[C@@H](C)O)C(=O)N[C@H]1CSSC[C@@H](C(=O)N[C@@H](Cc2c[nH]c3ccccc23)C(=O)N2CCC[C@H]2C(N)=O)NC(=O)[C@H](CCC(N)=O)NC(=O)[C@H](C)NC(=O)[C@H](Cc2c[nH]c3ccccc23)NC(=O)[C@H](CC(=O)O)NC(=O)[C@H](C)NC1=O
With B4, binding in data set [3] was characterised by a dissociation constant (Kd) of 72 nM.

B5: SEQ ID NO 78 (peptide)
peptide: Ac-MVWVPCEWDDCFY-NH2
modifications: disulfide 6-11
SMILES: CSCC[C@H](NC(C)=O)C(=O)N[C@H](C(=O)N[C@@H](Cc1c[nH]c2ccccc12)C(=O)N[C@H](C(=O)N1CCC[C@H]1C(=O)N[C@H]1CSSC[C@@H](C(=O)N[C@@H](Cc2ccccc2)C(=O)N[C@@H](Cc2ccc(O)cc2)C(N)=O)NC(=O)[C@H](CC(=O)O)NC(=O)[C@H](CC(=O)O)NC(=O)[C@H](Cc2c[nH]c3ccccc23)NC(=O)[C@H](CCC(=O)O)NC1=O)C(C)C)C(C)C
B5: in data set [3], the Kd was determined as 68 nM.

B6: SEQ ID NO 69 (peptide)
peptide: Ac-MWTICNNWHDCWP-NH2
modifications: disulfide 5-11
As for B6, the dissociation constant Kd in data set [3] came to 12 nM.

B7: SEQ ID NO 81 (peptide)
peptide: Ac-[dA]WTICNNWHDCWP-NH2
modifications: disulfide 5-11
SMILES: CC[C@H](C)[C@H](NC(=O)[C@@H](NC(=O)[C@H](Cc1c[nH]c2ccccc12)NC(=O)[C@@H](C)NC(C)=O)[C@@H](C)O)C(=O)N[C@H]1CSSC[C@@H](C(=O)N[C@@H](Cc2c[nH]c3ccccc23)C(=O)N2CCC[C@H]2C(N)=O)NC(=O)[C@H](CC(=O)O)NC(=O)[C@H](Cc2c[nH]cn2)NC(=O)[C@H](Cc2c[nH]c3ccccc23)NC(=O)[C@H](CC(N)=O)NC(=O)[C@H](CC(N)=O)NC1=O
For B7, in data set [3], the Kd was 6.5 nM.

By Kd is commonly meant the equilibrium constant for the complex coming apart.
